From paper PMC10974768 (Toxins, 2024)
Where two headings read alike, the source gives them in different places.

Columns and labels:
[1] = tested on: CYP2C8; details: cited from earlier work
[2] = tested on: CYP1A2, CYP2B6, CYP2E1, CYP2C9, CYP2A6, CYP3A4 (summary bound over all); test: in vitro; details: chicken, microsomes, pH 7.4
Protocol: (§1) A cocktail-approach for elucidating the metabolites profiling and CYP450 inhibition was conducted as in Lin et al. with minor changes. The incubation mixture contained 50 μL of 0.2 mg/mL of CLM, 10 μL of 0.1 M phosphate buffer (pH 7.4), 40 μL of 1 mM NADPH and six probe substrates with a total volume of 200 μL. The specific probe substrates used for each CYP450 isoenzyme in the incubation mixture were as follows: PH (CYP1A2), BP (CYP2B6), CLN (CYP2E1), TBD (CYP2C9), CAN (CYP2A6), and MDZ (CYP3A4). Probes substrates were dissolved in methanol as stock solution (1 mg/mL). All of them were diluted to the final concentrations (see Supplemental Materials) with incubation buffer and the percentage of organic solvent in the final incubation volume was below 1% (v/v). Briefly, the mixture was preincubated in a thermoshaker (Biosan, Geraardsbergen, Belgium) for 5 min at 37 °C prior to the initiation of the reaction with NADPH.4Na. After incubation, the mixture was terminated by 400 μL ice-cold acetonitrile. […] A volume of 5 µL of supernatant was analysed using UHPLC-MS/MS.

[3] = tested on: CYP1A2; test: in vitro; details: chicken, microsomes, pH 7.4
Protocol: as §1

[4] = tested on: CYP2A6; test: in vitro; details: chicken, microsomes, pH 7.4
Protocol: as §1

[5] = tested on: CYP2B6; test: in vitro; details: chicken, microsomes, pH 7.4
Protocol: as §1

[6] = tested on: CYP2C9; test: in vitro; details: chicken, microsomes, pH 7.4
Protocol: as §1

[7] = tested on: CYP2E1; test: in vitro; details: chicken, pH 7.4
Protocol: as §1

[8] = tested on: CYP3A4; test: in vitro; details: chicken, pH 7.4
Protocol: as §1

[9] = in vivo; type: in vivo, broiler chickens (Ross 308); details: for TIA concentration in chicken plasma, Treatment group: AFB1 diet 20 µg/kg feed for 2 weeks
[10] = tested on: broilers; details: AFB1 and TIA co-administrated
[11] = tested on: CYP3A4; details: read-out: IC50 for CYP3A4; human liver microsomes; cited from earlier work
[12] = tested on: CYP2C8; details: cited from earlier work; remark: listed apart in the source
[13] = tested on: CYP3A; details: chickens; doses of 25 and 125 mg/kg body weight; cited from earlier work
[14] = chickens exposed to AFB1 (750 µg/kg); nonsignificant; cited from earlier work
[15] = tested on: CYP1A, CYP2A, CYP2C, CYP2B, CYP2E and CYP3A in porcine liver microsomes; details: concentration of 3 μM; cited from earlier work
[16] = AFB1 diet 20 µg/kg feed for 2 weeks vs control, TIA oral 25 mg/kg BW, p < 0.01
[17] = TIA oral bolus 25 mg/kg BW, chickens not pretreated with AFB1 (control feed for 2 weeks), n = 9, mean ± SD

In the case of `CC1(C)S[C@@H]2[C@H](NC(=O)[C@H](N)c3ccc(O)cc3)C(=O)N2[C@H]1C(=O)O` [Amoxicillin], the IC50 [1] is given as 830 µM.
For `C=C[C@]1(C)C[C@@H](OC(=O)CSCCN(CC)CC)[C@]2(C)[C@H](C)CC[C@]3(CCC(=O)[C@H]32)[C@@H](C)[C@@H]1O` [TIA, tiamulin], the IC50 [2] was greater than 7.6 µM, the IC50 [3] was greater than 40 µM and the IC50 [4] was 7.6 µM. It also gave an IC50 [5] greater than 40 µM, an IC50 [6] greater than 40 µM and an IC50 ([7]; microsomes) greater than 40 µM. The “IC50 for CYP2E1” value [7] was 47.6 µM, the IC50 ([8]; microsomes) was greater than 40 µM and the “IC50 for CYP3A4” value [8] was 334.2 µM. The “TIA concentration in chicken plasma, Treatment group” value (“TIA concentration in chicken plasma” for short) ([9]; 0.25 h after oral TIA 25 mg/kg BW, mean ± SD) was 134 ± 71.5 ng/mL, the “TIA concentration in chicken plasma” value ([9]; 0.50 h after oral TIA 25 mg/kg BW, mean ± SD) was 83.7 ± 40.2 ng/mL and the “TIA concentration in chicken plasma” value ([9]; 1 h after oral TIA 25 mg/kg BW, mean ± SD) was 76.7 ± 40.2 ng/mL. For the same compound, the “TIA concentration in chicken plasma” value ([9]; 2 h after oral TIA 25 mg/kg BW, mean ± SD) was 91.0 ± 61.2 ng/mL, the “TIA concentration in chicken plasma” value ([9]; 3 h after oral TIA 25 mg/kg BW, mean ± SD) was 73.6 ± 32.9 ng/mL and the “TIA concentration in chicken plasma” value ([9]; 4 h after oral TIA 25 mg/kg BW, mean ± SD) was 29.6 ± 13.8 ng/mL. For the same compound, the “TIA concentration in chicken plasma” value ([9]; 6 h after oral TIA 25 mg/kg BW, mean ± SD) was 10.8 ± 3.6 ng/mL, the “TIA concentration in chicken plasma” value ([9]; 8 h after oral TIA 25 mg/kg BW, mean ± SD) was 10.4 ± 3.7 ng/mL and the “TIA concentration in chicken plasma” value ([9]; 12 h after oral TIA 25 mg/kg BW, mean ± SD) was 9.60 ± 3.0 ng/mL. The “TIA concentration in chicken plasma” value ([9]; 24 h after oral TIA 25 mg/kg BW, mean ± SD) was 9.50 ± 3.3 ng/mL, the “increase of Cmax of TIA by AFB1 exposure” value ([9]; AFB1 diet 20 µg/kg feed for 2 weeks vs control, TIA oral 25 mg/kg BW) was 155% and the “CL_F_obs of TIA in AFB1-exposed group lower than in the control group” value [9, 16] was 63%. The “Vd_F_obs of TIA in AFB1-exposed group lower than in the control group” value [9, 16] was 57%, the “increase of AUClast of TIA by AFB1 exposure” value [9, 16] was 167% and the “Tmax, Control” value [9, 17] was 0.4 ± 0.2 h. For the same compound, the “Vd_F_obs, Control” value [9, 17] was 715.1 ± 228.45 L/kg, the “Vd_F_obs, Treatment” value ([9]; TIA oral bolus 25 mg/kg BW, chickens pretreated with AFB1 contaminated diet (20 µg/kg feed for 2 weeks), n = 8, mean ± SD) was 407.1 ± 142.5 L/kg and the AUC(0-t) ([9]; male, Ross 308, in vivo, po, 25 mg/kg, TIA oral bolus 25 mg/kg BW, chickens not pretreated with AFB1 (control feed for 2 weeks), last sampling point 180 h, n = 9, mean ± SD, read-out: AUClast, Control) was 294 ± 63.3 ng·h/mL. It also gave an AUC(0-inf) ([9]; male, Ross 308, in vivo, po, 25 mg/kg, TIA oral bolus 25 mg/kg BW, chickens not pretreated with AFB1 (control feed for 2 weeks), n = 9, mean ± SD, read-out: AUCINF_obs, Control) of 357 ± 69.6 ng·h/mL, a CL/F ([9]; male, Ross 308, in vivo, po, 25 mg/kg, TIA oral bolus 25 mg/kg BW, chickens not pretreated with AFB1 (control feed for 2 weeks), n = 9, mean ± SD, read-out: CL_F_obs, Control (converted)) of 1200 mL/min/kg and a Cmax ([9]; male, Ross 308, in vivo, po, 25 mg/kg, TIA oral bolus 25 mg/kg BW, chickens not pretreated with AFB1 (control feed for 2 weeks), n = 9, mean ± SD, read-out: Cmax, Control) of 89.9 ± 45.9 ng/mL. It also gave an MRT last ([9]; male, Ross 308, in vivo, po, 25 mg/kg, TIA oral bolus 25 mg/kg BW, chickens not pretreated with AFB1 (control feed for 2 weeks), n = 9, mean ± SD, read-out: MRTlast, Control) of 6.8 ± 1.4 h, a half-life ([9]; male, Ross 308, in vivo, po, 25 mg/kg, TIA oral bolus 25 mg/kg BW, chickens not pretreated with AFB1 (control feed for 2 weeks), n = 9, mean ± SD, read-out: T1/2λz, Control (converted)) of 7 ± 2.9 h and a Tmax ([9]; male, Ross 308, in vivo, po, 25 mg/kg, TIA oral bolus 25 mg/kg BW, chickens not pretreated with AFB1 (control feed for 2 weeks), n = 9, mean ± SD, read-out: Tmax, Control) of 0.44 h. It also gave an AUC(0-inf) ([9]; male, Ross 308, in vivo, po, 25 mg/kg, TIA oral bolus 25 mg/kg BW, chickens pretreated with AFB1 contaminated diet (20 µg/kg feed for 2 weeks), n = 8, mean ± SD, read-out: AUCINF_obs, Treatment) of 586 ± 174 ng·h/mL, a CL/F ([9]; male, Ross 308, in vivo, po, 25 mg/kg, TIA oral bolus 25 mg/kg BW, chickens pretreated with AFB1 contaminated diet (20 µg/kg feed for 2 weeks), n = 8, mean ± SD, read-out: CL_F_obs, Treatment (converted)) of 763 mL/min/kg and a Cmax ([9]; male, Ross 308, in vivo, po, 25 mg/kg, TIA oral bolus 25 mg/kg BW, chickens pretreated with AFB1 contaminated diet (20 µg/kg feed for 2 weeks), n = 8, mean ± SD, read-out: Cmax, Treatment) of 142 ± 65.4 ng/mL. For the same compound, the MRT last ([9]; male, Ross 308, in vivo, po, 25 mg/kg, TIA oral bolus 25 mg/kg BW, chickens pretreated with AFB1 contaminated diet (20 µg/kg feed for 2 weeks), n = 8, mean ± SD, read-out: MRTlast, Treatment) was 6.2 ± 1.8 h, the half-life ([9]; male, Ross 308, in vivo, po, 25 mg/kg, TIA oral bolus 25 mg/kg BW, chickens pretreated with AFB1 contaminated diet (20 µg/kg feed for 2 weeks), n = 8, mean ± SD, read-out: T1/2λz, Treatment (converted)) was 6.3 ± 2.2 h and the Tmax ([9]; male, Ross 308, in vivo, po, 25 mg/kg, TIA oral bolus 25 mg/kg BW, chickens pretreated with AFB1 contaminated diet (20 µg/kg feed for 2 weeks), n = 8, mean ± SD, read-out: Tmax, Treatment) was 1 ± 1.1 h. For the same compound, the “adverse health effects in broilers” value [10] was “No significant adverse health effects” and the IC50 [11] was 1.6 µM.
For `COc1cc(Cc2cnc(N)nc2N)cc(OC)c1OC` [Trimethoprim], the “inhibitory effect on CYP2C8” value [12] is given as “weak inhibitory effect”.
In the case of `CCN1CCN(c2cc3c(cc2F)c(=O)c(C(=O)O)cn3C2CC2)CC1` [enrofloxacin], the “inhibition of CYP3A activity” value [13] is listed as “inhibit CYP3A activity”, the “increase of AUC0–∞” value [14] is listed as 17% and the “increase of T1/2a” value [14] is listed as 17%. For the same compound, the “increase of Tmax” value [14] was 26%.
In the case of `CCC[C@@H]1C[C@@H](C(=O)N[C@@H]([C@H]2O[C@H](SC)[C@H](O)[C@@H](O)[C@H]2O)[C@@H](C)O)N(C)C1` [lincomycin], the “inhibition of CYP1A, CYP2A, CYP2C, CYP2B, CYP2E and CYP3A” value [15] is listed as “inhibits”.
